Patent EP0728012B1, “NOVEL GnRH ANALOGUES WITH ANTITUMOUR EFFECTS AND PHARMACEUTICAL COMPOSITIONS THEREOF” (Lovas, Sandor, priority 1994, dated 1996)
Like-named read-outs stand apart in the source and are kept apart here. Non-standard residues stand in square brackets, D forms with d. Residues, ends and D or L forms follow the SMILES beside them. pGlu = O=C1CC[C@@H](C(=O)O)N1

Assays:
[1] = test system: PC3; test: In vitro inhibition of cell proliferation (Example 19); type: cell-based, human; conditions: 30 µM, peptide alone, two treatments on days 2 and 4
Procedure: The procedure of treatment was as follows. After trypsinization the cells, 400,000 cells of MCF-7, MDA-MB-231 human mammary carcinoma, PC3 human prostate carcinoma or Ishikawa human endometrium tumour each were passed into Petri dishes of 10 cm in diameter. Starting from the day following transfer, the cells were treated with the substances to be tested in solution prepared with the nutrient medium during the exponential growth phase. The cultures were treated with 1 to 50 µM (calculated for the total volume of the culture) or MI-1544 GnRH antagonist, MI-1892 chicken GnRH antagonist or SJ-1004 GnRH antagonist analogues as well as synthetic lamprey GnRH-III hormone every two days and the cell count was determined on the 7th day.

[2] = test system: MCF-7 human mammary carcinoma cell line; test: Inhibition of colony formation (dose-survival relation, Example 18); type: cell-based; conditions: 50 µM (active substance), treated once
Procedure: (§1) In the case of cytostatics the cell-damaging effect is not cell-specific. […] One part of the arrested cells again go into the cycle, the other part may perish (apoptosis). […] The investigations were carried out on MCF-7 and MDA-MB-231 human mammary carcinoma cell lines, PC3 human prostate 15 carcinoma cell line and Ishikawa human endometrium carcinoma cell line. Three hundred cells were set into Petri dishes of 3.5 cm in diameter each. The treatment was carried out once, 24 hours following the explantation, then the colonies formed were counted after 9 to 12 days.

[3] = test system: PC3 human prostate carcinoma cell line; test: as above; type: cell-based; conditions: 50 µM
Procedure: as §1

[4] = test system: MDA-MB-231 human mammary carcinoma cell line; test: as above; type: cell-based; conditions: 50 µM
Procedure: as §1

[5] = test system: Ishikawa human endometrium carcinoma cell line; test: as above; type: cell-based; conditions: 50 µM
Procedure: as §1

[6] = test system: MDA-MB-231; conditions: for % Inhibition of cell division (proliferation): MDA-MB-231, 30 µM active substance, conjugate, treated once
Procedure: (§2) The procedure of treatment was as follows. After trypsinization the cells, 400,000 cells of MCF-7, MDA-MB-231 human mammary carcinoma, PC3 human prostate carcinoma or Ishikawa human endometrium tumour each were passed into Petri dishes of 10 cm in diameter. Starting from the day following transfer, the cells were treated with the substances to be tested in solution prepared with the nutrient medium during the exponential growth phase. […]

[7] = test system: MCF-7; conditions: for % Inhibition of cell division (proliferation): MCF-7, 30 µM active substance, conjugate, treated once, cell count on 7th day
Procedure: as §2

[8] = test system: human tumour cell lines; test: Inhibition of colony formation (Example 48), comparison with the control D-Trp^6-hGnRH; type: cell-based; conditions: data of Table VIII
Procedure: (§3) The examination gives accurate information about the cell-damaging effect of the substance tested as a function of varying doses. The treatment was carried out once; the colonies formed from the surviving cells were counted after 8 - 12 days. […] A part of the arrested cells again entered the cycle, another part of them might be destroyed (apoptosis). […] In the case of a dose-response investigation, colonies containing less than 15 cells were not counted. 300 cells were put into each Petri dishes of 3.5 cm in diameter. The treatment was once carried out 24 hours after setting, then the colonies formed were counted after 8 - 12 days. The cells were treated once after 24 hours with 1-50 µM of various GnRH analogues of Examples above or with 1 - 50 µM of GnRH-III, respectively. The percentages of inhibition obtained on MCF-7, MDA-MB-231, PC3 and Ishikawa cells, respectively, together with the dose of the active agent used are shown in Table VIII.
In these studies the D-Trp^6-hGnRH analogue (Sigma Co.) commonly used in the tumour therapy was employed as control.

[9] = test system: PC3; test: Inhibition of colony formation by GnRH analogues (dose-survival, Example 48); type: cell-based, human
Procedure: as §3

[10] = test system: MDA-MB-231; test: as above; type: cell-based, human
Procedure: as §3

[11] = test system: MCF-7; test: as above; type: cell-based, human; conditions: treated once
Procedure: as §3

[12] = test system: Ishikawa; test: as above; type: cell-based, human; conditions: 50 µM
Procedure: as §3

In the case of CC(C)C[C@H](NC(=O)[C@@H](CCCCN)NC(=O)[C@H](Cc1ccc(O)cc1)NC(=O)[C@H](CO)NC(=O)[C@@H](Cc1c[nH]c2ccccc12)NC(=O)[C@@H](Cc1ccccc1)NC(=O)[C@@H]1CCC(=O)N1)C(=O)N[C@@H](CCCNC(=N)N)C(=O)N1CCC[C@H]1C(=O)NCC(N)=O [SJ-1004, D-Phe^2,D-Trp^3,D-Lys^6-hGnRH, reference compound] ([pGlu][dF][dW]SY[dK]LRPG-NH2), the inhibition of proliferation [1] is reported as 10%, the “% Inhibition of colony formation” value [2] is reported as 31% and the “% Inhibition of colony formation” value [3] is reported as 0%. For the same compound, the “% Inhibition of colony formation” value [4] was 26%, the “% Inhibition of colony formation” value [5] was 5% and the “inhibition of proliferation (decrease in cell count)” value ([6]; MDA-MB-231 (10% FCS), 30 µM, peptide alone, treated every two days (two treatments)) was 23%. The “inhibition of proliferation (decrease in cell count)” value ([7]; MCF-7 (10% FCS), 30 µM, peptide alone, treated every two days (two treatments, days 2 and 4)) was 17%.
CC(C)C[C@H](NC(=O)[C@@H](Cc1c[nH]c2ccccc12)NC(=O)[C@H](CCCCN)NC(=O)[C@H](CO)NC(=O)[C@H](Cc1c[nH]c2ccccc12)NC(=O)[C@H](Cc1c[nH]cn1)NC(=O)[C@@H]1CCC(=O)N1)C(=O)N[C@@H](CCCNC(=N)N)C(=O)N1CCC[C@H]1C(=O)NCC(N)=O [17. Lys^5-DTrp^6-hGnRH, Lys^5,D-Trp^6-hGnRH] ([pGlu]HWSK[dW]LRPG-NH2) was tested, and the “inhibitory effect compared with the control D-Trp^6-hGnRH” value [8] was “a twice stronger inhibition”, the “% Inhibition of the colony formation” value ([9]; 50 µM) was 18% and the “inhibition of colony formation” value ([9]; within the dose range used (1-50 µM)) was “weakly inhibited”. For the same compound, the “% Inhibition of the colony formation” value ([10]; 10 µM) was 30%, the “% Inhibition of the colony formation” value ([10]; 50 µM) was 63% and the “% Inhibition of the colony formation” value ([11]; 10 µM) was 39%. For the same compound, the “% Inhibition of the colony formation” value ([11]; 50 µM) was 65%, the “% Inhibition of the colony formation” value [12] was 17% and the “% Inhibition of the colony formation” value ([12]; listed as compound 17, 50 µM) was 15%.
For “Ac-D-Trip^1,3,D-Cpa^2,{Lys[n-poly(N-vinylpyrrolidone-co-maleic acid)-Gly-Leu-Gly-]}^5,[a-Asp(DEA)]^6, D-Ala^10-GnRH [P-GLG-1892]”, the “% Inhibition of cell division (proliferation)” value (shortened to “% Inhibition of cell division”) ([6]; listed as 13. P-GLG-MI-1892) was 35% and the “% Inhibition of cell division” value ([7]; listed as 13. P-GLG-MI-1892) was 33%.
With “Ac-D-Trp^1,3,D-Cpa^2,{Lys[n-poly(N-vinylpyrrolidone-co-maleic acid)-Phe-Leu-Gly-]}^5,a-Asp (DEA)]^6,D-Ala^10-GnRH [P-FLG-1892]” the “% Inhibition of cell division” value ([6]; listed as 12. P-FLG-MI-1892) was 35% and the “% Inhibition of cell division” value ([7]; listed as 12. P-FLG-MI-1892) was 33%.
